Patent US4908384A, “Fatty acid leukotriene synthesis inhibitors” (McNeilab, Inc., priority 1986, dated 1990)

Tests used:
human granulocyte cells = assay: Human granulocyte Assay for Lipoxygenase Products (HGALP); format: cell-based; conditions: inhibition of [3H]-lipoxygenase metabolite release; human granulocytes prelabeled with [3H]-arachidonic acid, 10 μM ionophore A23187, 14 μM indomethacin
Procedure: (b) Human granulocyte Assay for Lipoxygenase Products (HGALP)
This test is a measurement of the inhibition of the synthesis or relase of [3H]-labeled lipoxygenase metabolites released or generated from human granulocyte cells that are prelabeled with [3H]-arachidonic acid. These metabolites include the leukotrienes (e.g., LTB4) which are potent mediators of inflammation and allergy. In this test, a granulocyte enriched fraction is prepared from freshly drawn human blood (50 ml/donor) by standard techniques involving unit gravity separation on ficoll hypaque. […] After washing out unincorporated label, the radiolabeled cells are brought up in incubation buffer (Minimum Essential Medium containing 14 μM indomethacin) to a 10^7 cell/ml concentration. […] Cell suspensions are challeged with 10 μM ionophore A23187 to […], incubations are terminated by the addition of 1 ml ice cold phosphate buffered saline, and cells are pelleted by centrifugation. Supernatants are passed through C18 Sep Pak® cartridges which are then washed twice with 1 ml water. Lipoxygenase metabolites are eluted with two 1 ml volumes of methanol. Eluates are collected in scintillation vials and counted in Aqueous Counting Scintillant (ACS). Radioactivity eluted with methanol is a measure of lipoxygenase metabolites. Values are normalized to vehicle (5 μl DMSO) treated controls and expressed as percent inhibition. Triplicate determinations at each drug concentration are analyzed as log-dose response curves by linear regression analysis from which IC50 values are derived.
(§1) The results of the IMCPS and the HGALP tests, employing the administration of various illustrative compounds of the present invention, are shown in Table I. The compounds are of the formula (I) wherein R^1, R^2, R^3, A and Y are as shown, R^4 and R^5 are hydrogen and k is 3.

[1] = tested on: guinea pig lung parenchymal tissue; assay: Immunologically Mediated Contraction of the Parenchymal Strip (IMCPS); format: cell-based; conditions: Cavia porcellus, inhibition of egg albumin-induced contraction of sensitized guinea pig lung strip, 30 min preincubation, chlorpheniramine 10 μM and indomethacin 100 μM present, active if >=15%, read-out: IMCPS % Inhib @ 100 μM
Procedure: (a) Immunogically Mediated Contraction of the Parenchymal Strip (IMCPS)
It is a modification of the procedure published by K. Forsberg and L. Sorenby in Agents and Actions, Vol. 9 pp. 364-368 (1978). In this test, male Hartley strain guinea pigs weighting 400 to 600 g were sensitized by subcutaneous administration of chicken egg albumin (Sigma A-5503, 1.0 mg, 0.5% solution) and bordetella pertussis, 11×10^9 cells (MassachusettsPublic health Biological Labs) 4 to 8 weeks prior to the experiment. The animals were sacrificed, the heart and lungs were removed en bloc and placed in Krebs solution at room temperature. Lung strips (2.5 cm in length) were cut from the perihperal edge of each lobe. Two strips were removed from each animal and were trimmed to be of equal length. Each strip was suspended in an isolated organ bath (10.0 ml) containing oxygenated Krebs buffer solution at 37.5° C. then attached to a force displacement transducer (Grass FTO3) and placed under an initial tension of 1.0 g. The tissues were allowed to equilibrate for 45-60 min, during which the bathing solution was changed several times. At the end of the equilbration period, chlorpheniramine (10.0μM) and indomethacin (100.0μM) were added to eliminate the contribution of histamine and prostaglandins to the contractile response. The two tissues from each animal were matched so that one tissue served as a control and the test drug dissolved in DMSO was added to the bath containing the other tissue at a final concentration of 100μM. After 30 min, egg albumin was added to each bath and the contractile response was measured as milligrams of tension developed as recorded on a Grass Model 7D polygraph.
as §1

| SMILES | IC50 (human granulocyte cells) [µM] | inhibition at 100 µM [1] [%] |
| --- | --- | --- |
| CCCCCCCCCCCCC(O)C/C=C\CCCC(=O)O (stereo not shown) [Example 2, 8-Hydroxy-5(Z)-eicosenoic Acid] | 7.5 | 19 |
| CCCCCOc1ccc(OCC(O)CC#CCCCC(=O)O)cc1 (stereo not shown) [Example 14b, 8-Hydroxy-9-(4-pentoxyphenoxy)-5-nonynoic acid] | 33 | 0 to 30 |
| CCCCCc1ccc(OCC(S)CC#CCCCC(=O)O)cc1 (stereo not shown) [Example 12b, 8-Mercapto-9-(4-pentylphenoxy)-5-nonynoic acid] | 13 | 29 |
| CCCCCc1ccc(OCC(O)C/C=C\CCCC(=O)O)cc1 (stereo not shown) [Example 10, 8-Hydroxy-9-(4-pentylphenoxy)-5-(Z)-nonenoic acid] | 1.1 to 9.5 | 28.5 |
| CCCCCCCCCCCCC(=O)CC#CCCCC(=O)O [Example 4, 8-Oxo-5-eicosynoic Acid] | 4.9 | 22 |
| CCCCCc1ccc(OCC(O)CC#CCCCC(=O)O)cc1 (stereo not shown) [Example 7b, 8-Hydroxy-9(4-pentylphenoxy)-5-nonynoic acid] | 12 | 29 |
| CCCCCc1ccc(OCC(C/C=C\CCCC(=O)OC)SC(C)=O)cc1 (stereo not shown) [Example 11, Methyl 8-(Acetylthio)-9-(4-pentylphenoxy)-5-(Z)-nonenoate] | 8.5 | 3 |
| CCCCCCCCCCCCC(O)CC#CCCCC(=O)O (stereo not shown) [Example 1d, 8-Hydroxy-5-eicosynoic acid] | 12 | 20 to 43 |
| O=C(O)CCC/C=C\CC(O)CCc1ccccc1 (stereo not shown) [Example 6, 8-Hydroxy-10-phenyl-5(Z)-decenoic Acid] | 13 | 9 |
| CCCCCc1ccc(OCC(O)C/C=C\CCCC(=O)OC)cc1 (stereo not shown) [Example 9, Methyl 8-Hydroxy-9-(4-pentylphenoxy)-5(Z)-nonenoate] | 14 | 0 |
| CCCCCc1ccc(OCC(O)CCCCCCC(=O)O)cc1 (stereo not shown) [Example 13, 8-Hydroxy-9-(4-pentylphenoxy)nonanoic Acid] | 2.3 | 6 |
| CCCCCc1ccc(OCC(O)CC#CCCCC(=O)OC)cc1 (stereo not shown) [Example 8, Methyl 8-Hydroxy-9-(4-pentylphenoxy)-5-nonynoate] | 8 | 14 |
| CCCCCCCCCCCCC(=O)C/C=C\CCCC(=O)O [Example 3, 8-oxo-5-(Z)-eicosenoic Acid] | 13 | 24 |
| O=C(O)CCCC#CCC(O)CCc1ccccc1 (stereo not shown) [Example 5, 8-Hydroxy-10-phenyl-5-decynoic Acid Hydrate (10:1)] | 14.2 | 9 to 14 |
